# Reference: patent publication US9067898B1, “Isothiazole derivatives as GPR120 agonists for the treatment of type II diabetes” (Janssen Pharmaceutica NV, priority 2014, dated 2015)
# Tests used:
# Type in all cases: cell-based
# [1] = target: T1, Human GPR120 short form (Homo sapiens, UniProt Q5NUL3); assay: Human GPR120 calcium flux assay (FLIPR), Procedure Calcium B; conditions: HEK-293 cells expressing human GPR120 short form, 4200 cells/well; read-out: GPR120 Ca2+ Assay B EC50
# T1 construct: expressed in transfected cells
# T1 sequence (Q5NUL3 1-361): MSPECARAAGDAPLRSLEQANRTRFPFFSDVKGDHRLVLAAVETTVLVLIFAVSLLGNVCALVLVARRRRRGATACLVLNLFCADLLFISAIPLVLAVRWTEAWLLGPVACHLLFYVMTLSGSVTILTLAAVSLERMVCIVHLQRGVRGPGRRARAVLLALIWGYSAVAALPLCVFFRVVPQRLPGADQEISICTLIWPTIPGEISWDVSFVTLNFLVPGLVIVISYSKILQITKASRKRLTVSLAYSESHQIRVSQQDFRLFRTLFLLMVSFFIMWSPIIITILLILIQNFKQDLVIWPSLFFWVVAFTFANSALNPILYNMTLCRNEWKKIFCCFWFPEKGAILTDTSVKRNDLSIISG
# Source text: This in vitro assay serves to assess test compound agonist activity against the short splice variant (SVS with Accession number NM_001195755.1 confirmed by sequencing data) of the GPR120 receptor. The Human Short splice variant #2 (NM_001195755.1) is missing an in-frame coding exon compared to variant 1 (the Human Long splice variant NM_181745.3), resulting in a shorter isoform (GPR120-S) lacking a 16 aa protein segment compared to isoform GPR120-L. The assay platform utilizes HEK-293 cells stably transfected to express the Human GPR120 short form. These cells are first loaded with the Ca^+2 sensitive dye, Fluo-4 NW. Upon stimulation, intracellular released Ca^+2 can bind to the dye and alter its fluorescence intensity. This increase in fluorescence signal, and thus the flux in intracellular [Ca^2+], is detected and quantitated by fluorescence imaging using a FLIPR reader. The effect of the agonist is measured as a function of concentration and used to calculate an EC50 based upon a response curve.
# In this procedure 4200 cells/well were employed.
# A Human GPR120 clone (Genbank accession number NM_001195755.1) was placed into the pcDNA3.1 mammalian expression vector carrying the neomycin resistance gene. A stable mammalian cell was generated by placing the above clone into a HEK293 background. Clonal cells responding to long chain fatty acids had expression levels of GPR120 confirmed by RT-qPCR. Human HEK-GPR120 cells were cultured in Dulbecco's Modified Eagle's Medium (DMEM)/F12 medium supplemented with 10% fetal bovine serum (FBS), 1% L-Glutamine and 1% penicillin/streptomycin and 0.5 mg/ml G-418. Cells were split 2 times a week to keep the cells in the log-phase growth.
# In preparation for the assay, HEK cells stably transfected with Human GPR120 (2.5K cells per well in 25 uL growth medium) were seeded into 384-well plates and then incubated overnight (37° C., 5% CO2). The next day, the media was changed to 20 μL assay buffer and the cell starved for 1 h at 37° C. The dye loading solution (2× dye) was prepared using 10 mL assay buffer, 100 μL of 250 mM probenecid, 1 bottle of Component A, and 20 μl of dye in DMSO. Twenty μL of the 2× dye loading buffer was then added to each well. The plates were incubated at 37° C. for 30 min, then at room temperature for an additional 15 minutes, before performing the assay on FLIPR. Test compounds were prepared in assay buffer (2 uL of cpd+198 uL assay buffer, final DMSO in assay plate is 0.2%) at the desired concentration, more particularly at 100, 50, 25, 12.5, 6.25, 3.125, 1.562, 0.781, 0.391, 0.195, 0.098, 0.049, 0.024 and 0.012 μM.
# The assay was performed on a FLIPR plate reader using the following parameters. Baseline was read for 10 seconds at 1 sec intervals. The program was set to transfer 10 μL of ligand from compound plate to cell plate after baseline reading. Aspiration was executed at: 10 μL/sec speed, 4.6 μL height; Dispensing was executed at: 30 μL/sec speed, 45 μL height. After compound addition, each well was read for 300 sec, with measurements collected at 1 sec intervals.
# The kinetic data from the FLIPR was based upon a 5 minute window for data collection. The fluorescence of each sample well was used for individual calculations of a normalized RFU value, which was defined as maximum response minus the minimum response. The normalized fluorescence reading (RFU) was calculated as follows: RFU=Fmax−Fmin The data were fitted to a sigmoidal dose-response curve with a variable Hill slope (<2) using nonlinear regression with GraphPad Prism 5.0 to calculate the EC50 values. The Fitting Equation was: Y=Bottom+(Top−Bottom)/(1+10^((Log EC50−X)*HillSlope)), where X is the log of the concentration and Y is the response.
# [2] = target: T2, short form of the GPR120 receptor (GPR120S) (Homo sapiens, UniProt Q5NUL3); assay: Human GPR120 DiscoveRx PathHunter Beta-Arrestin assay, Procedure β-arrestin B; conditions: PathHunter CHO-K1 GPR120S β-Arrestin cell line, 5000 cells/well, read-out: hGPR120 β-arrestin B EC50
# T2 construct: host or cells: PathHunter CHO-K1 GPR120S β-Arrestin Cell Line
# In short: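 PathHunter CHO-K1 β-arrestin cells expressed long-form GPR120 (Procedure A, 3000 cells/well) or short-form GPR120 (Procedure B, 5000 cells/well). Compounds were serially diluted from 25 µM and incubated 90 min at 37 °C in HBSS/20 mM HEPES/0.1% BSA, pH 7.4. Luminescence was read after 60 min detection at RT; EC50 comes from % activity versus positive control, Hill slope fixed at 1.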
# [3] = target: T1, Human GPR120 short form; assay: Human GPR120 calcium flux assay (FLIPR), Procedure Calcium A; conditions: HEK-293 cells expressing human GPR120 short form, 2500 cells/well; read-out: GPR120 Ca2+ Assay A EC50
# In short: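 HEK293 cells stably expressing the short isoform (NM_001195755.1), 2500/well, starved 1 h, then loaded with Fluo-4 NW plus probenecid (30 min 37 °C, 15 min RT). Compound solutions 0.012–100 μM, 0.2% DMSO final; FLIPR read 300 s after addition. EC50 from Fmax−Fmin fitted to variable-slope sigmoid (Hill <2).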
# T2 sequence (P32121 whole entry partner, one chain of several): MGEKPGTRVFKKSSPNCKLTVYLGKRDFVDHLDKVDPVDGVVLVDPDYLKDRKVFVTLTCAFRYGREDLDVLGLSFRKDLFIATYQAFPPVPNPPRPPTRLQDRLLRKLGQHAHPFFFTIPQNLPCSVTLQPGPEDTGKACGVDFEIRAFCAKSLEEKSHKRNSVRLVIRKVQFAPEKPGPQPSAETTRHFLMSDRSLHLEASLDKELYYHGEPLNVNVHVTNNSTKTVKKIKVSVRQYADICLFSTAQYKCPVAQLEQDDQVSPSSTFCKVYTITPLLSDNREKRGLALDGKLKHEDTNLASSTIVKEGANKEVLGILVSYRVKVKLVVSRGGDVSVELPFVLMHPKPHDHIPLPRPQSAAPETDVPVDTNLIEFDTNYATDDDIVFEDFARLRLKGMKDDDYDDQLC
EC50 [1],EC50 [2],EC50 [3],SMILES
923 nM,–,–,"CCc1ccc(-c2nsc(C(C)C)c2COc2ccc(CCC(=O)O)c(C)c2C)cc1 [Cpd 64, 3-(4-[[3-(4-ethylphenyl)-5-(propan-2-yl)-1,2-thiazol-4-yl]methoxy]-2,3-dimethylphenyl)propanoic acid]"
–,1480 nM,478 nM,"Cc1ccccc1-c1snc(C(F)(F)F)c1COc1ccc(CCC(=O)O)c(C(F)(F)F)c1 [Cpd 203, 3-(4-[[5-(2-methylphenyl)-3-(trifluoromethyl)-1,2-thiazol-4-yl]methoxy]-2-(trifluoromethyl)phenyl) propanoic acid]"
–,741 nM,530 nM,"O=C(O)C1CC1c1ccc(OCc2c(-c3ccc(Cl)cc3)nsc2C(F)(F)F)cc1 (stereo not drawn) [Cpd 205, 2-(4-((3-(4-chlorophenyl)-5-(trifluoromethyl)isothiazol-4-yl)methoxy)phenyl)cyclopropanecarboxylic acid]"
–,554 nM,578 nM,"O=C(O)CCc1ccc(OCc2c(C(F)(F)F)nsc2-c2ccc(Cl)cc2)cc1Cl [Cpd 208, 3-(2-chloro-4-[[5-(4-chlorophenyl)-3-(trifluoromethyl)-1,2-thiazol-4-yl]methoxy]phenyl)propanoic acid]"
–,1050 nM,580 nM,"Cc1cc(CCC(=O)O)c(C(F)(F)F)cc1OCc1c(Cl)nsc1-c1ccccc1C [Cpd 210, 3-(4-((3-chloro-5-(o-tolyl)isothiazol-4-yl)methoxy)-5-methyl-2-(trifluoromethyl)phenyl)propanoic acid]"
–,74 nM,600 nM,"CCc1ccc(-c2nsc(C(F)(F)F)c2COc2c(F)cc(CC(C)C(=O)O)cc2F)cc1F (stereo not drawn) [Cpd 212, 3-(4-((3-(4-ethyl-3-fluorophenyl)-5-(trifluoromethyl)isothiazol-4-yl)methoxy)-3,5-difluorophenyl)-2-methylpropanoic acid]"
–,2140 nM,648 nM,"CCc1cc(CCC(=O)O)c(C(F)(F)F)cc1OCc1c(Cl)nsc1-c1ccccc1C [Cpd 215, 3-(4-((3-chloro-5-(o-tolyl)isothiazol-4-yl)methoxy)-5-ethyl-2-(trifluoromethyl)phenyl)propanoic acid]"
–,731 nM,756 nM,"Cc1ccc(-c2snc(C(F)(F)F)c2COc2ccc(CCC(=O)O)c(C(F)(F)F)c2)c(F)c1 [Cpd 221, 3-(4-[[5-(2-fluoro-4-methylphenyl)-3-(trifluoromethyl)-1,2-thiazol-4-yl]methoxy]-2-(trifluoromethyl)phenyl)propanoic acid]"
–,229 nM,831 nM,"Cc1c(CCC(=O)O)ccc(OCc2c(-c3ccc(C(F)(F)F)cc3)nsc2C(F)(F)F)c1C [Cpd 224, 3-(2,3-dimethyl-4-[[5-(trifluoromethyl)-3-[4-(trifluoromethyl)phenyl]-1,2-thiazol-4-yl]methoxy]phenyl)propanoic acid]"
–,227 nM,840 nM,"CCc1ccc(-c2nsc(C(F)(F)F)c2COc2ccc(CCC(=O)O)c(C)c2C)c(F)c1 [Cpd 225, 3-(4-((3-(4-ethyl-2-fluorophenyl)-5-(trifluoromethyl)isothiazol-4-yl)methoxy)-2,3-dimethylphenyl)propanoic acid]"
–,3780 nM,867 nM,"CCc1cc(OCc2c(Cl)nsc2-c2ccccc2C)ccc1CCC(=O)O [Cpd 227, 3-(4-[[3-chloro-5-(2-methylphenyl)-1,2-thiazol-4-yl]methoxy]-2-ethylphenyl)propanoic acid]"
–,1810 nM,936 nM,"COc1cc(F)c(-c2nsc(C(F)(F)F)c2COc2ccc(CCC(=O)O)c(C)c2C)c(F)c1 [Cpd 229, 3-(4-[[3-(2,6-difluoro-4-methoxyphenyl)-5-(trifluoromethyl)-1,2-thiazol-4-yl]methoxy]-2,3-dimethylphenyl)propanoic acid]"
349 nM,–,–,"Cc1ccccc1-c1snc(Cl)c1COc1ccc(CCC(=O)O)c(C(F)(F)F)c1 [Cpd 253, 3-[4-{[3-Chloro-5-(2-methylphenyl)isothiazol-4-yl]methoxy}-2-(trifluoromethyl)phenyl]propanoic acid]"
401 nM,–,–,"Cc1ccccc1-c1snc(Cl)c1COc1ccc(CCC(=O)O)cc1 [Cpd 254, 3-(4-{[3-Chloro-5-(2-methylphenyl)isothiazol-4-yl]methoxy}phenyl)propanoic acid]"
550 nM,–,–,"Cc1ccc(-c2snc(Cl)c2COc2ccc(CCC(=O)O)cc2)c(C)c1 [Cpd 255, 3-(4-{[3-Chloro-5-(2,4-dimethylphenyl)isothiazol-4-yl]methoxy}phenyl)propanoic acid]"
986 nM,–,–,"Cc1ccc(-c2snc(Cl)c2COc2ccc(CCC(=O)O)c(C(F)(F)F)c2)c(C)c1 [Cpd 256, 3-[4-{[3-Chloro-5-(2,4-dimethylphenyl)isothiazol-4-yl]methoxy}-2-(trifluoromethyl)phenyl]propanoic acid]"
1060 nM,–,–,"Cc1cc(OCc2c(Cl)nsc2-c2ccccc2C)ccc1CCC(=O)O [Cpd 257, 3-(4-{[3-Chloro-5-(2-methylphenyl)isothiazol-4-yl]methoxy}-2-methylphenyl)propanoic acid]"
210 nM,–,–,"COc1cc(OCc2c(Cl)nsc2-c2ccc(C)cc2F)ccc1CCC(=O)O [Cpd 258, 3-(4-{[3-Chloro-5-(2-fluoro-4-methylphenyl)isothiazol-4-yl]methoxy}-2-methoxyphenyl)propanoic acid]"
261 nM,–,–,"O=C(O)CCc1ccc(OCc2c(Cl)nsc2-c2ccccc2Cl)cc1C(F)(F)F [Cpd 259, 3-[4-{[3-Chloro-5-(2-chlorophenyl)isothiazol-4-yl]methoxy}-2-(trifluoromethyl)phenyl]propanoic acid]"
3430 nM,–,–,"COc1ccccc1-c1snc(Cl)c1COc1ccc(CCC(=O)O)c(C(F)(F)F)c1 [Cpd 260, 3-[4-{[3-Chloro-5-(2-methoxyphenyl)isothiazol-4-yl]methoxy}-2-(trifluoromethyl)phenyl]propanoic acid]"

SMILES,EC50 [1],EC50 [2],EC50 [3]
"COc1cc(OCc2c(Cl)nsc2-c2ccccc2C)ccc1CCC(=O)O [Cpd 222, 3-(4-((3-chloro-5-(o-tolyl)isothiazol-4-yl)methoxy)-2-methoxyphenyl)propanoic acid]",–,1950 nM,757 nM
